Series [1] deals with T1, PRMT1 (Homo sapiens, UniProt Q99873).
T1 construct: made in house
Put plainly: Km assay, MTase-Glo Methyltransferase assay (peptoid as substrate). Conditions: peptoid 0-1000 μM, 200 nM PRMT1. The class given is biochemical. Here is the method:
The kinetics of each peptoid were determined using the MTase-Glo Methyltransferase assay kit to monitor the conversion of S-adenosylmethionine (SAM) to S-adenosylhomocysteine (SAH). Briefly, various concentrations (0-1000 μM) of the peptoid in assay buffer (20 mM Tris-HCl pH 8.0, 50 mM NaCl, 1 mM EDTA, 3 mM MgCl2, 0.1 mg/ml BSA, 1 mM DTT) were incubated at 37° C. After 10 min, 200 nM PRMT1 was added to initiate the reaction. The reaction proceeded for 10 min at 37° C. until quenched with the addition of 0.5% TFA (0.1% final concentration, 10 min, r.t.) followed by the addition of MTase-Glo Reagent to a final concentration of 1×. After 30 min incubating at r.t, MTase-Glo Detection Solution was added and incubated for 30 min at r.t. Immediately afterwards, the luminescence signal was read with a BioTek Synergy 2 Multi-Mode Microplate Reader. Luminescence signal was converted to product concentration using SAH standards (0-5 μM), following the above assay. The initial rates were fitted into equation (1) using GraFit version 7.03. V=Vmax[S]/(Km+[S]) (1) IC50 Assay

Series [2] has as its target T1, PRMT1. Put plainly: IC50 assay, MTase-Glo Methyltransferase assay. The format is biochemical. The method, then:
The efficacy of the peptoid inhibitors was probed using the MTase-Glo Methyltransferase assay kit. Various concentrations (0-1000 μM) of peptoid was incubated in assay buffer (20 mM Tris-HCl pH 8.0, 50 mM NaCl, 1 mM EDTA, 3 mM MgCl2, 0.1 mg/ml BSA, 1 mM DTT) at 37° C. for 10 min. Afterward, the inhibitor was allowed to interact with 200 nM PRMT1 for 15 min at 37° C. The reaction was catalyzed with 225 μM of AcH4-21 (a PRMT1 peptide substrate), continued for 15 min at 37° C., was quenched with the addition of 0.5% TFA (0.1% final concentration, 10 min, r.t.), followed by the addition of MTase-Glo Reagent to a final concentration of 1×. After 30-min incubation at r.t., MTase-Glo Detection Solution was added and incubated for 30 min at r.t. Luminescence signal was converted to product concentration using SAH standards (0-5 μM), following the above assay. Immediately afterwards, the luminescence signal was read with a BioTek Synergy 2 Multi-Mode Microplate Reader. IC50 values were determined by fitting the data to equation (2) using GraFit version 7.03. Fractional activity of PRMT=1/(1+([I]/IC50)) (2) where [I] is the inhibitor concentration and IC50 is the concentration of inhibitor resulting in 50% PRMT activity.
The IC50 value for the peptoid inhibitors were measured using the MTase-Glo Methyltransferase assay kit (Promega). The peptoid was incubated in assay buffer (20 mM Tris-HCl pH 8.0, 50 mM NaCl, 1 mM EDTA, 3 mM MgCl2, 0.1 mg/mL BSA, 1 mM DTT) and substrate (0-1000 μM) at either 37° C. (PRMT1) or 25° C. (PRMT5). After a pre-incubation of 10 minutes, 200 nM PRMT1 or PRMT5 was added to the assay before adding in the substrate, AcH4-21, at 225 μM. The reaction proceeded for 15 minutes before being quenched with 0.5% TFA (0.1% final concentration), vortexed, and incubated for an additional 10 minutes. To detect product formation, the MTase-Glo Reagent was added for 30 minutes at r.t., followed by addition of the MTase-Glo Detection solution for an additional 30 minutes. Finally, the luminescence signal was measured using a BioTek Synergy 2 Multi-Mode Microplate Reader. The values were converted to product concentration using a standard curve of S-adenosylhomocysteine (SAH; 0-5 μM). The IC50 values were determined using equation 1 and fit to a curve using GraFit 7.03. Fractional activity of PRMT=1/(1+([I]/IC50)) (2) IC50 is the concentration of inhibitor resulting in 50% PRMT activity and [I] is the inhibitor concentration. Cell Culture and Conditions

Series [3] relates to HepaRG immortalized, terminally differentiated liver cells. Conditions: non-tumorigenic HepaRG; for growth over time course: 72 hour time course. Here is the method:
(§1) MDA-MB-468 breast carcinoma cells (ATCC; HTB132), HCT116+/+p53 colon carcinoma cells were grown in DMEM supplemented in 5% FBS. HepaRG terminally differentiated liver cell line (Thermoscientific; HPRGC10) and HepaRG-Fucci cells were grown in Williams media supplemented with Glutamax and 5% FBS and normal Human Mammary Epithelial Cells (HMEC) (ATCC; PCS-600-010) were grown in Mammary epithelial basal medium (ATCC; PCS-600-030) supplemented with mammary epithelial cell growth kit (ATCC; PCS-600-040). Cells were recovered with 0.25% trypsin-EDTA, plated on cell culture treated plates and/or coverslips according to the experimental design and incubated overnight in 37° C. humidified CO2 incubator kept at 5% CO2 (800WJ; Thermoscientific). Cells were washed twice with sterile PBS before switching to serum free treatment media along with varying concentrations of the PRMT inhibitor compound (0-40 μM).
(§2) Cell viability and growth was assessed using the crystal violet assay as described by Oliver et al., J Cell Sci, 1989). […] Cells were fixed at each time point with 100% methanol and stained with 1% crystal violet in 0.01M borate buffer (pH 8.9). Absorbance of dye eluted in 1:1 (v/v) ethanol: 0.01M HCl was checked at 650 nm by microplate reader. The cell growth rate was calculated by the following formula: Cell growth rate (%)=(A650 at n hour/A650 0 h). Each condition was tested in triplicate and repeated three independent times.

The subject of series [4] is Human Mammary Epithelial Cells (HMEC). To be noted: normal HMEC, 72 hour time course. The method, then:
as §1, §2

Series [5] has as its system caspase-3 activity in HepaRG cells. Conditions: only at the highest dose. The method, then:
Caspase-3 activity assay was performed on extracted protein lysates using colorimetric caspase-3 activity assay (K106; Biovision) as per manufacturer's protocol. Briefly, 50 μL of extracted protein was plated in a UV compatible 96 well plate. DEVD-pNA substrate in prepared 1× buffer was added to each sample. The plate was shaken for 10 minutes and incubated at 37° C. in Biorad plate reader and read at 405 nm every 10 minutes for 2 hours.

Where [6] appears, read: histone H4 peptoids, SAM 40 μM, substrate AcH4-21 225 μM, read-out: IC50.
Where [7] appears, read: listed as unacetylated H4-16 warhead chloracetamidine peptoid.

Like-named read-outs stand apart in the source and are kept apart here. Starred links: 1 amine or outer side, 2 acyl side, 3 side chain; linkers in the order of their positions; H or OH if unused. Non-standard residues stand in square brackets, D forms with d. Residues, ends and D or L forms follow the SMILES beside them. Gly(N-(CH2)3-guanidino) = N=C(N)NCCCNCC(=O)O; X1 = N=C(CCl)NCCCN(CC(=O)[*:2])[*:1]; Gly(N-CH2CH2OH) = O=C(O)CNCCO; Nleu = CC(C)CNCC(=O)O; Nlys = NCCCCNCC(=O)O; Sar = CNCC(=O)O

Usually IC50 stands for the concentration that gives 50% inhibition.

T1 sequence (Q99873 1-353 isoform Q99873-3, species assumed): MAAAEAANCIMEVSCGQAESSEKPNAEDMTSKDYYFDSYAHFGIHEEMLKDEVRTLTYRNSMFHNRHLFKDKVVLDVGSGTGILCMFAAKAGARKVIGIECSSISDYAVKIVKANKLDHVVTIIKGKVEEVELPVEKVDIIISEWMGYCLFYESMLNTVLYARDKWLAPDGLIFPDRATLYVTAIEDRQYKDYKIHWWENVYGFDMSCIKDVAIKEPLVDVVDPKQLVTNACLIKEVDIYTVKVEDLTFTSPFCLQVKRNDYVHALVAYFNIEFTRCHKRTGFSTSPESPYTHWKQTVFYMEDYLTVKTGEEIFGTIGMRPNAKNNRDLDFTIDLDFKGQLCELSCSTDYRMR

As for `CC(=O)N(CCO)CC(=O)NCC(=O)N(CCCNC(=N)N)CC(=O)NCC(=O)N(CCCCN)CC(=O)NCC(=O)NCC(=O)N(CCCCN)CC(N)=O` [AcH4-8] (Ac-[Gly(N-CH2CH2OH)]G[Gly(N-(CH2)3-guanidino)]G[Nlys]GG[Nlys]-NH2), in series [1], the “modification / product turnover as PRMT1 substrate” value was “low product turnover”. Also, in series [2] (setting [6]), the IC50 is over 1 mM.
`CC(=O)N(CCO)CC(=O)NCC(=O)N(CCCNC(=N)N)CC(=O)NCC(=O)N(CCCCN)CC(=O)NCC(=O)NCC(=O)N(CCCCN)CC(=O)NCC(=O)N(CC(=O)NCC(=O)N(CCCCN)CC(=O)NCC(N)=O)CC(C)C` [AcH4-13] (Ac-[Gly(N-CH2CH2OH)]G[Gly(N-(CH2)3-guanidino)]G[Nlys]GG[Nlys]G[Nleu]G[Nlys]G-NH2): the “modification / product turnover as PRMT1 substrate” value in series [1] was “low product turnover”. In addition, the IC50 in series [2] is over 1 mM.
Regarding `CC(=O)N(CCO)CC(=O)NCC(=O)N(CCCNC(=N)N)CC(=O)NCC(=O)N(CCCCN)CC(=O)NCC(=O)NCC(=O)N(CCCCN)CC(=O)NCC(=O)N(CC(=O)NCC(=O)N(CCCCN)CC(=O)NCC(=O)NCC(=O)N(C)CC(=O)N(CCCCN)CC(N)=O)CC(C)C` [AcH4-16 peptoid] (Ac-[Gly(N-CH2CH2OH)]G[Gly(N-(CH2)3-guanidino)]G[Nlys]GG[Nlys]G[Nleu]G[Nlys]GG[Sar][Nlys]-NH2), the IC50 in series [2] is 0.916 ± 0.0195 mM.
As to `N=C(N)NCCCN(CC(=O)NCC(=O)N(CCCCN)CC(=O)NCC(=O)NCC(=O)N(CCCCN)CC(N)=O)C(=O)CNC(=O)CNCCO` [Peptoid H4-8] (H-[Gly(N-CH2CH2OH)]G[Gly(N-(CH2)3-guanidino)]G[Nlys]GG[Nlys]-NH2), the 50% inhibitory concentration (IC50) in series [2] (setting [6]) is over 1 mM. In series [2] (up to 1000 μM), the “inhibition of PRMT1” value is “did not show any inhibition up to 1000 μM”.
With `CC(C)CN(CC(=O)NCC(=O)N(CCCCN)CC(=O)NCC(=O)NCC(=O)N(C)CC(=O)N(CCCCN)CC(N)=O)C(=O)CNC(=O)CN(CCCCN)C(=O)CNC(=O)CNC(=O)CN(CCCCN)C(=O)CNC(=O)CN(CCCNC(=N)CCl)C(=O)CNC(=O)CNCCO` [Peptoid P2] (H-[Gly(N-CH2CH2OH)]G[X1]G[Nlys]GG[Nlys]G[Nleu]G[Nlys]GG[Sar][Nlys]-NH2), the cell viability entry in series [3] (0-40 μM, 48 hours) was “no prominent change”. In addition, the “growth over time course” value is listed as “no detectable effect in growth” in series [3], “No detectable effect in growth” in series [3] (setting [7]), “no detectable effect in growth” in series [4] and “No detectable effect in growth” in series [4] (setting [7]). For the same compound, the results for the caspase-3 activity result in series [5] and in series [5] (setting [7]) were “minimal activation of caspase-3” and “Only minimal activation of caspase-3”, respectively.
